The conditions of series [1]: buffer, 0 h, pH 9.
The nature of a further series: physchem. The settings on record: buffer, pH 9.

Where a SMILES comes first, the peptide text is derived from it. Bridges are numbered along the chain shown (N, C = ends). Where no end group is shown, it is not given here.

The source of these data is patent publication US20240076327A1 (priority 2020, published 2024).

Turning to “GSQYCVPVDQPCSLNTQPCCDDATCTQERNENGHTVYYCRA (disulfide 5-20, 12-25, 19-39) [GS-ω/κ-hexatoxin-Hv1h]”, in series [1], the “observed overall stability (percentage of remaining parent peak)” value was found to be 100%. In the series “physchem”, the fraction remaining (usually the share of the starting amount still present when the sample was taken) at 24 h is 94%, the share remaining at 48 h was determined as 91%, the amount remaining at 72 h turned out to be 82% and the share remaining at 96 h came out at 83%. Moreover, in “physchem”, the fraction remaining at 120 h was determined as 83%, the share remaining at 144 h amounted to 81%, the amount remaining at 168 h is 69% and the amount remaining at 360 h amounted to 50%.
Consider `CC[C@H](C)[C@H](NC(=O)[C@H](C)N)C(=O)N[C@H]1CSSC[C@@H]2NC(=O)[C@@H]3CSSC[C@@H](C(=O)N[C@@H](CCCNC(=N)N)C(=O)N[C@@H](CCCCN)C(=O)N[C@@H](CC(=O)O)C(=O)N[C@@H](CCC(=O)O)C(=O)N4CCC[C@H]4C(=O)O)NC(=O)[C@H](Cc4ccc(O)cc4)NC(=O)[C@H](CO)NC(=O)[C@H](C(C)C)NC(=O)CNC(=O)[C@H](CC(N)=O)NC(=O)[C@H](CO)NC(=O)[C@H](CCC(=O)O)NC(=O)[C@H](C)NC(=O)[C@H](CCCCN)NC(=O)[C@H](CSSC[C@H](NC(=O)[C@@H]4CCCN4C(=O)[C@H](CCCNC(=N)N)NC(=O)[C@H](CC(=O)O)NC(=O)[C@H](C)NC(=O)CNC(=O)[C@H]([C@@H](C)O)NC1=O)C(=O)N[C@@H](C)C(=O)N[C@@H](C)C(=O)N[C@H]1CSSC[C@H](NC1=O)C(=O)N1CCC[C@H]1C(=O)N3)NC(=O)[C@H](CO)NC(=O)[C@H]([C@@H](C)O)NC(=O)CNC(=O)[C@@H]1CCCN1C2=O` [κ-hexatoxin-Hv1c] (H-AICTGADRPCAACCPCCPGTSCKAESNGVSYCRKDEP-OH; disulfide 3-17, 10-22, 13-14, 16-32), for which the “observed overall stability (percentage of remaining parent peak)” value in series [1] turned out to be 100%. In “physchem”, this compound registered a share remaining at 24 h of 91%, an amount remaining at 48 h of 80%, a fraction remaining at 72 h of 75% and an amount remaining at 96 h of 61%. In the series “physchem”, this compound displayed an amount remaining at 120 h of 51%, an amount remaining at 144 h of 41%, a fraction remaining at 168 h of 30% and a fraction remaining at 360 h of 9%.
